Results taken from PMC6874179, “Development of Macrocycle Kinase Inhibitors for ALK2 Using Fibrodysplasia Ossificans Progressiva‐Derived Endothelial Cells” (JBMR Plus, 2019).

What was measured:
DCLK2 = target: T1, DCLK2 (Homo sapiens, UniProt Q8N568); test: Proqinase Kinase profiling; format: biochemical; settings: read-out: % inhibition at 100nM
T1 construct: purchased DiscoverX

EGFR_G719C = target: T2, EGFR_G719C (Homo sapiens, UniProt P00533, G719C); test: Proqinase Kinase profiling; format: biochemical; settings: read-out: % inhibition at 100nM
T2 construct: purchased DiscoverX

MINK1 = target: T3, MINK1 (Homo sapiens, UniProt Q8N4C8); test: Proqinase Kinase profiling; format: biochemical; settings: read-out: % inhibition at 100nM
T3 construct: purchased DiscoverX
T3 sequence (Q8N4C8 whole entry): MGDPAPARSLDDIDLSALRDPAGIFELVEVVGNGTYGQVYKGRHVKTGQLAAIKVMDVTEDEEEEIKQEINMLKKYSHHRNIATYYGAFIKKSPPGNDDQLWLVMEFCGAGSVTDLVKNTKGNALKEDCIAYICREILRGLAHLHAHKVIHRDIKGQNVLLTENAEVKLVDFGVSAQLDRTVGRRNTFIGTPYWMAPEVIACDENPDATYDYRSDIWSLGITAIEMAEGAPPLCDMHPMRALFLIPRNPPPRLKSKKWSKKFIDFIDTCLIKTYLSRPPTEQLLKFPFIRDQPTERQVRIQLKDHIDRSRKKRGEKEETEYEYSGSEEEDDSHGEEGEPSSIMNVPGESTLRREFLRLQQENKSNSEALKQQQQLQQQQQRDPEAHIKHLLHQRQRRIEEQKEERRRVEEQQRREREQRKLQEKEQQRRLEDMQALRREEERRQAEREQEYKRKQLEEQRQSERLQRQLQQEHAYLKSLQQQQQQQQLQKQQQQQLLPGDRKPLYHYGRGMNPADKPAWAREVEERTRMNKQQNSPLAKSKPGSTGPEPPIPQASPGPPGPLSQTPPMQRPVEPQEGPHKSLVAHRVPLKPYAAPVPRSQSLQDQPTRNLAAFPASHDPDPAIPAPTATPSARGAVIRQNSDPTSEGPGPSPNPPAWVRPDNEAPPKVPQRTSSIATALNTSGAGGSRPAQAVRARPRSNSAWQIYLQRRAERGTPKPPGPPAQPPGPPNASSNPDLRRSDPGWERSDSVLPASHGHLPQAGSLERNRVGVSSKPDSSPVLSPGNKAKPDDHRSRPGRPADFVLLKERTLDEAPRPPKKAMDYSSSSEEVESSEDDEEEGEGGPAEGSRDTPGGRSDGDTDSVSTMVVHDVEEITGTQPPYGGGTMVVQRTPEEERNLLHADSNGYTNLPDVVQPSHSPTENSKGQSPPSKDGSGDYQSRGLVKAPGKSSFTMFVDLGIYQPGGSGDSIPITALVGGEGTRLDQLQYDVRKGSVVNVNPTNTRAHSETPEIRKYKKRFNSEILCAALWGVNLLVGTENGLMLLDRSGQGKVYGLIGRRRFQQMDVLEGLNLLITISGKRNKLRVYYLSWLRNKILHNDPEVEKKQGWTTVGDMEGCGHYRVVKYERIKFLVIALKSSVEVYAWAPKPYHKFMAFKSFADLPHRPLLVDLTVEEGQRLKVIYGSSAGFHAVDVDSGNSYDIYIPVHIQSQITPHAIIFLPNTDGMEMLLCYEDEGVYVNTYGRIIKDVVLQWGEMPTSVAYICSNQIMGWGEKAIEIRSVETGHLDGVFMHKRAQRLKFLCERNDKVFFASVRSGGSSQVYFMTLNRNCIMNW

NUAK1 = target: T4, NUAK1 (Homo sapiens, UniProt O60285); test: Proqinase Kinase profiling; format: biochemical; settings: read-out: % inhibition at 100nM
T4 construct: purchased DiscoverX

EGFR_L858R = target: T5, EGFR_L858R (Homo sapiens, UniProt P00533, L858R); test: Proqinase Kinase profiling; format: biochemical; settings: read-out: % inhibition at 100nM
T5 construct: purchased DiscoverX

PRKD2 = target: T6, PRKD2 (Homo sapiens, UniProt Q9BZL6); test: Proqinase Kinase profiling; format: biochemical; settings: read-out: % inhibition at 100nM
T6 construct: purchased DiscoverX

ABL1 = target: T7, ABL1 (Homo sapiens, UniProt P00519); test: Proqinase Kinase profiling; format: biochemical; settings: read-out: % inhibition at 100nM
T7 construct: purchased DiscoverX

CDK5_p35 = target: T8, CDK5_p35 (Homo sapiens, UniProt Q00535); test: Proqinase Kinase profiling; format: biochemical; settings: read-out: % inhibition at 100nM
T8 construct: purchased DiscoverX

EPHB2 = target: T9, EPHB2 (Homo sapiens, UniProt P29323); test: Proqinase Kinase profiling; format: biochemical; settings: read-out: % inhibition at 100nM
T9 construct: purchased DiscoverX

DNAPK = target: T10, DNAPK (Homo sapiens, UniProt P78527); test: Proqinase Kinase profiling; format: biochemical; settings: read-out: % inhibition at 100nM
T10 construct: purchased DiscoverX

SRPK2 = target: T11, SRPK2 (Homo sapiens, UniProt P78362); test: Proqinase Kinase profiling; format: biochemical; settings: read-out: % inhibition at 100nM
T11 construct: purchased DiscoverX

FGFR3_K650E = target: T12, FGFR3_K650E (Homo sapiens, UniProt P22607, K650E); test: Proqinase Kinase profiling; format: biochemical; settings: read-out: % inhibition at 100nM
T12 construct: purchased DiscoverX
T12 sequence (P22607 23-806 K650E): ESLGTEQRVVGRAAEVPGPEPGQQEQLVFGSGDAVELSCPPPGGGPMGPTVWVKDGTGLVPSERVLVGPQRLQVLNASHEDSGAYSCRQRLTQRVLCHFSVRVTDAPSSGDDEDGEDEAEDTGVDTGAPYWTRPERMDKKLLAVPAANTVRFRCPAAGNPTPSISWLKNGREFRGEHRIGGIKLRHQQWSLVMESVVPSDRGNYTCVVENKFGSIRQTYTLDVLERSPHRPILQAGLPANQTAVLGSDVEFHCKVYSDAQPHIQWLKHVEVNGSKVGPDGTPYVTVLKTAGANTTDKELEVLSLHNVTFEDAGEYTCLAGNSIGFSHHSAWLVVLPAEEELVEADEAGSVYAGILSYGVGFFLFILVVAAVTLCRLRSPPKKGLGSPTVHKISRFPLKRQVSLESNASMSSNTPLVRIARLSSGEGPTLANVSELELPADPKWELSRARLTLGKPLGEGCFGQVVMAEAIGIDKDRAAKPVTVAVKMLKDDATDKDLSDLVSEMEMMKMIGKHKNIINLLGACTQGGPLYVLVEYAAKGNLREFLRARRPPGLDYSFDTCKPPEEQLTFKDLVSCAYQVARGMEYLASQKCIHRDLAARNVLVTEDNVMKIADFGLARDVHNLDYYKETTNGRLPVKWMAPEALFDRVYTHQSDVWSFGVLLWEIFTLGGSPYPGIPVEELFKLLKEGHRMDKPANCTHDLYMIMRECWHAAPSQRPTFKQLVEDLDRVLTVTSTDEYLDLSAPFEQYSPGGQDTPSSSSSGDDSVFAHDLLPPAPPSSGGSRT

FGFR4 = target: T13, FGFR4 (Homo sapiens, UniProt P22455); test: Proqinase Kinase profiling; format: biochemical; settings: read-out: % inhibition at 100nM
T13 construct: purchased DiscoverX

CAMK1D = target: T14, CAMK1D (Homo sapiens, UniProt Q8IU85); test: Proqinase Kinase profiling; format: biochemical; settings: read-out: % inhibition at 100nM
T14 construct: purchased DiscoverX

RET = target: T15, RET (Homo sapiens, UniProt P07949); test: Proqinase Kinase profiling; format: biochemical; settings: read-out: % inhibition at 100nM
T15 construct: purchased DiscoverX

MET_D1228N = target: T16, MET_D1228N (Homo sapiens, UniProt P08581, D1228N); test: Proqinase Kinase profiling; format: biochemical; settings: read-out: % inhibition at 100nM
T16 construct: purchased DiscoverX

EPHA4 = target: T17, EPHA4 (Homo sapiens, UniProt P54764); test: Proqinase Kinase profiling; format: biochemical; settings: read-out: % inhibition at 100nM
T17 construct: purchased DiscoverX
T17 sequence (P54764 20-986): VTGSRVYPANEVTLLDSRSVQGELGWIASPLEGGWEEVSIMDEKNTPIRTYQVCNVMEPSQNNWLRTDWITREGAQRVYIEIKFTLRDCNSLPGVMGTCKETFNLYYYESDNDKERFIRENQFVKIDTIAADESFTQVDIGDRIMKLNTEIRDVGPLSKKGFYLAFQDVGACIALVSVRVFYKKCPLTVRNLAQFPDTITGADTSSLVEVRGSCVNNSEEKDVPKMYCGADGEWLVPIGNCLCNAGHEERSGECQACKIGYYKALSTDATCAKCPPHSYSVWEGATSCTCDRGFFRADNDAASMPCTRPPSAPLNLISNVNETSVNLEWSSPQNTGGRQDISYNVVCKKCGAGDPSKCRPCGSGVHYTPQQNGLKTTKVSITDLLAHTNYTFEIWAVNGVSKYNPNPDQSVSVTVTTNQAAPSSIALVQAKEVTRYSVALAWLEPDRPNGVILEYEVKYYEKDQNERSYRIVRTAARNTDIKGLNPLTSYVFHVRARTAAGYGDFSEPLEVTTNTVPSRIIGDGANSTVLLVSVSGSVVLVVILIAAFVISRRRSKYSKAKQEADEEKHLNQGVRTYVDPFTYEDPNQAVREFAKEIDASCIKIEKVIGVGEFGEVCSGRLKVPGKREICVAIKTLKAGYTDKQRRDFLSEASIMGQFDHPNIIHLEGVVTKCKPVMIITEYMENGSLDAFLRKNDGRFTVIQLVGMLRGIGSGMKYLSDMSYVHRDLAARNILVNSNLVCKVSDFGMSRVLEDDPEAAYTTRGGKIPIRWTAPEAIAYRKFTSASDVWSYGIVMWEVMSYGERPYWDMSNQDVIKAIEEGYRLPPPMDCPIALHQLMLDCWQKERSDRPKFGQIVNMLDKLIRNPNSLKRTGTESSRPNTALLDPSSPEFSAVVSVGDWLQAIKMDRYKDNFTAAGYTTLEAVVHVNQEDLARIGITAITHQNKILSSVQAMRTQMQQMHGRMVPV

RPS6KB1 = target: T18, RPS6KB1 (Homo sapiens, UniProt P23443); test: Proqinase Kinase profiling; format: biochemical; settings: read-out: % inhibition at 100nM
T18 construct: purchased DiscoverX

RPS6KA1 = target: T19, RPS6KA1 (Homo sapiens, UniProt Q15418); test: Proqinase Kinase profiling; format: biochemical; settings: read-out: % inhibition at 100nM
T19 construct: purchased DiscoverX

RET_G691S = target: T20, RET_G691S (Homo sapiens, UniProt P07949, G691S); test: Proqinase Kinase profiling; format: biochemical; settings: read-out: % inhibition at 100nM
T20 construct: purchased DiscoverX

PAK3 = target: T21, PAK3 (Homo sapiens, UniProt O75914); test: Proqinase Kinase profiling; format: biochemical; settings: read-out: % inhibition at 100nM
T21 construct: purchased DiscoverX

SRPK3 = target: T22, SRPK3 (Homo sapiens, UniProt Q9UPE1); test: Proqinase Kinase profiling; format: biochemical; settings: read-out: % inhibition at 100nM
T22 construct: purchased DiscoverX

NTRK1 = target: T23, NTRK1 (Homo sapiens, UniProt P04629); test: Proqinase Kinase profiling; format: biochemical; settings: read-out: % inhibition at 100nM
T23 construct: purchased DiscoverX

PTK2 = target: T24, PTK2 (Homo sapiens, UniProt Q05397); test: Proqinase Kinase profiling; format: biochemical; settings: read-out: % inhibition at 100nM
T24 construct: purchased DiscoverX

TTK = target: T25, TTK (Homo sapiens, UniProt P33981); test: Proqinase Kinase profiling; format: biochemical; settings: read-out: % inhibition at 100nM
T25 construct: purchased DiscoverX
T25 sequence (P33981 whole entry): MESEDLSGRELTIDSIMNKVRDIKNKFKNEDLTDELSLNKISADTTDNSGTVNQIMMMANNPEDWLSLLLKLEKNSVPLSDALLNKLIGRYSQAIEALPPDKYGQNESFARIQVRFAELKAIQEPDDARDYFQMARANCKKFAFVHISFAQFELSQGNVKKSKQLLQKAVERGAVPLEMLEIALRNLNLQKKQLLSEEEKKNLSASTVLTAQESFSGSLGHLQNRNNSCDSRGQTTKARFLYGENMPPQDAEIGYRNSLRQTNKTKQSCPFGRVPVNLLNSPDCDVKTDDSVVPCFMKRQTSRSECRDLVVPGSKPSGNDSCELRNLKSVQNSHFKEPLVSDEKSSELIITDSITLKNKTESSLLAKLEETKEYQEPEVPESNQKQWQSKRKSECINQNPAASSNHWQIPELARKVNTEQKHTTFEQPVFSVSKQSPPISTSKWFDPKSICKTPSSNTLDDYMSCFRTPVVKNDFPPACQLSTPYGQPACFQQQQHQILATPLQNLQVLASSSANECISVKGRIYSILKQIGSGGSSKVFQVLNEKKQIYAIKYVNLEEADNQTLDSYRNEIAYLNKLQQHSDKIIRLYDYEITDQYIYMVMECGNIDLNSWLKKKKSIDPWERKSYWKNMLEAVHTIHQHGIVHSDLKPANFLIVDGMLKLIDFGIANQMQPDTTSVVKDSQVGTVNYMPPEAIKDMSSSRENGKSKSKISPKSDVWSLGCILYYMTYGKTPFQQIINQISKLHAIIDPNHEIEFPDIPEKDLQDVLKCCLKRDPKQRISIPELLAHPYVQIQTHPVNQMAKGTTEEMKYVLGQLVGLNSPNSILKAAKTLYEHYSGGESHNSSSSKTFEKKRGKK

MERTK = target: T26, MERTK (Homo sapiens, UniProt Q12866); test: Proqinase Kinase profiling; format: biochemical; settings: read-out: % inhibition at 100nM
T26 construct: purchased DiscoverX

MAP3K8 = target: T27, MAP3K8 (Homo sapiens, UniProt P41279); test: Proqinase Kinase profiling; format: biochemical; settings: read-out: % inhibition at 100nM
T27 construct: purchased DiscoverX
T27 sequence (P41279 whole entry): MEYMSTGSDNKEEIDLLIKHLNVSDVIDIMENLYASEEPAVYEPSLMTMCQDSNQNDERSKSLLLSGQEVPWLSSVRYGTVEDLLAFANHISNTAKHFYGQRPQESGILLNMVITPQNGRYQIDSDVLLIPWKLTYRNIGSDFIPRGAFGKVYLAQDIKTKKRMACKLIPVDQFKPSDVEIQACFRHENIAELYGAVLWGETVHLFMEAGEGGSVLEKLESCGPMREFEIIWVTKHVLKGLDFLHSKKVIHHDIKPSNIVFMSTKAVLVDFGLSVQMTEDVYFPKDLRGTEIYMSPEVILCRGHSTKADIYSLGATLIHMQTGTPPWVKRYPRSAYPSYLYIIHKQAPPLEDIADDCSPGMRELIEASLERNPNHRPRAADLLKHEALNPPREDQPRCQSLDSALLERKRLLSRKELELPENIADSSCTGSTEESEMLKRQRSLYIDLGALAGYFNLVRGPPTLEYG

MAP3K7 = target: T28, MAP3K7 (Homo sapiens, UniProt O43318); test: Proqinase Kinase profiling; format: biochemical; settings: read-out: % inhibition at 100nM
T28 construct: purchased DiscoverX

SYK = target: T29, SYK (Homo sapiens, UniProt P43405); test: Proqinase Kinase profiling; format: biochemical; settings: read-out: % inhibition at 100nM
T29 construct: purchased DiscoverX

PIM2 = target: T30, PIM2 (Homo sapiens, UniProt Q9P1W9); test: Proqinase Kinase profiling; format: biochemical; settings: read-out: % inhibition at 100nM
T30 construct: purchased DiscoverX

[1] = test system: TGF-β-induced CAGA-LUC reporter activity; test: TGF-β CAGA-LUC reporter assay in KS483 cells; format: cell-based, mouse; settings: TGF-β 5 ng/mL 16 hours, compared with LDN-193189
Protocol: Compounds were added for 16 hours at 0.5μM before luciferase activity was measured.
For luciferase reporter assays, cells were seeded in 24-well plates and transfected with DharmaFECT Duo (Fisher Scientific, Landsmeer, The Netherlands), following the recommendations of the manufacturer. 48 hours after transfection the cells were harvested and lysed. […] Each transfection mixture was equalized with empty vector when necessary and every experiment was performed in triplicate.

ACVR2A = target: T31, ACVR2A (Homo sapiens, UniProt P27037); test: Proqinase Kinase profiling; format: biochemical; settings: read-out: % inhibition at 100nM
T31 construct: T7 phage fusion (or DNA tag for qPCR if made in HEK-293); purchased DiscoverX; host or cells: E. coli (T7 phage) or HEK-293

CLK4 = target: T32, CLK4 (Homo sapiens, UniProt Q9HAZ1); test: Proqinase Kinase profiling; format: biochemical; settings: read-out: % inhibition at 100nM
T32 construct: purchased DiscoverX

JAK2 = target: T33, JAK2 (Homo sapiens, UniProt O60674); test: Proqinase Kinase profiling; format: biochemical; settings: read-out: % inhibition at 100nM
T33 construct: purchased DiscoverX

EGFR_E746-A750del = target: T34, EGFR_E746-A750del (Homo sapiens, UniProt P00533, DEL746-750); test: Proqinase Kinase profiling; format: biochemical; settings: read-out: % inhibition at 100nM
T34 construct: purchased DiscoverX

RET_Y791F = target: T35, RET_Y791F (Homo sapiens, UniProt P07949, Y791F); test: Proqinase Kinase profiling; format: biochemical; settings: read-out: % inhibition at 100nM
T35 construct: purchased DiscoverX

EIF2AK3 = target: T36, EIF2AK3 (Homo sapiens, UniProt Q9NZJ5); test: Proqinase Kinase profiling; format: biochemical; settings: read-out: % inhibition at 100nM
T36 construct: purchased DiscoverX

MET_Y1235D = target: T37, MET_Y1235D (Homo sapiens, UniProt P08581, Y1235D); test: Proqinase Kinase profiling; format: biochemical; settings: read-out: % inhibition at 100nM
T37 construct: purchased DiscoverX

GSK3B = target: T38, GSK3B (Homo sapiens, UniProt P49841); test: Proqinase Kinase profiling; format: biochemical; settings: read-out: % inhibition at 100nM
T38 construct: purchased DiscoverX
T38 sequence (P49841 whole entry): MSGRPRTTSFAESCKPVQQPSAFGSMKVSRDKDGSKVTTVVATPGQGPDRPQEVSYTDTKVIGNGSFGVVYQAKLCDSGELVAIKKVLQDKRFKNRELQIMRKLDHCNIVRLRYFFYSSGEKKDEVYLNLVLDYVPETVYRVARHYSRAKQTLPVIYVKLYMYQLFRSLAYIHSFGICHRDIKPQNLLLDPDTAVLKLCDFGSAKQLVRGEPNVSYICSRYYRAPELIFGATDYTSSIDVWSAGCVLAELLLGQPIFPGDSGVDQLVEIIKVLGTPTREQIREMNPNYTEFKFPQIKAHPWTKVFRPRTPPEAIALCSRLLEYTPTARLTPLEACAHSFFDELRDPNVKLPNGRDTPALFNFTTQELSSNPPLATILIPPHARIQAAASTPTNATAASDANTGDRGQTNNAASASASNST

SMILES | inhibition at 0.1 µM (DCLK2) | inhibition at 0.1 µM (EGFR_G719C) | inhibition at 0.1 µM (MINK1) | inhibition at 0.1 µM (NUAK1) | inhibition at 0.1 µM (EGFR_L858R) | inhibition at 0.1 µM (PRKD2) | inhibition at 0.1 µM (ABL1) | inhibition at 0.1 µM (CDK5_p35) | inhibition at 0.1 µM (EPHB2) | inhibition at 0.1 µM (DNAPK) | inhibition at 0.1 µM (SRPK2) | inhibition at 0.1 µM (FGFR3_K650E) | inhibition at 0.1 µM (FGFR4) | inhibition at 0.1 µM (CAMK1D) | inhibition at 0.1 µM (RET) | inhibition at 0.1 µM (MET_D1228N) | inhibition at 0.1 µM (EPHA4) | inhibition at 0.1 µM (RPS6KB1) | inhibition at 0.1 µM (RPS6KA1) | inhibition at 0.1 µM (RET_G691S) | further results
Clc1cc2cc(c1)-c1cnn3ccc(nc13)NCCOCCO2 [OD36] | 11% | 19% | 5% | 6% | 11% | 9% | 3% | 9% | -2% | 13% | -2% | 8% | 9% | 6% | 27% | 4% | -2% | -9% | 9% | 25% | inhibition at 0.1 µM (PAK3): 1%; inhibition at 0.1 µM (SRPK3): 9%; inhibition at 0.1 µM (NTRK1): 14%; inhibition at 0.1 µM (PTK2): 18%; inhibition at 0.1 µM (TTK): 10%; inhibition at 0.1 µM (MERTK): 15%; inhibition at 0.1 µM (MAP3K8): 5%; inhibition at 0.1 µM (MAP3K7): 3%; inhibition at 0.1 µM (SYK): -1%; inhibition at 0.1 µM (PIM2): 17%; Inhibitory effect on TGF-β-induced gene transcription (CAGA-LUC) [1]: significantly less inhibitory effect; inhibition at 0.1 µM (ACVR2A): 15%; inhibition at 0.1 µM (CLK4): 22%; inhibition at 0.1 µM (JAK2): 7%; inhibition at 0.1 µM (EGFR_E746-A750del): 9%; inhibition at 0.1 µM (RET_Y791F): 30%; inhibition at 0.1 µM (EIF2AK3): 1%; inhibition at 0.1 µM (MET_Y1235D): -5%; inhibition at 0.1 µM (GSK3B): 11%
Cc1cc2cc(c1)-c1cnn3ccc(nc13)NCCNC(=O)CCN(C)C2 [OD52] | 7% | -31% | -11% | -4% | -23% | 4% | 0% | -8% | 15% | 4% | -16% | -7% | -28% | -4% | 28% | 6% | -7% | -2% | 10% | 24% | inhibition at 0.1 µM (PAK3): -15%; inhibition at 0.1 µM (SRPK3): -5%; inhibition at 0.1 µM (NTRK1): 29%; inhibition at 0.1 µM (PTK2): -1%; inhibition at 0.1 µM (TTK): -9%; inhibition at 0.1 µM (MERTK): -10%; inhibition at 0.1 µM (MAP3K8): -10%; inhibition at 0.1 µM (MAP3K7): -6%; inhibition at 0.1 µM (SYK): -2%; inhibition at 0.1 µM (PIM2): 4%; Inhibitory effect on TGF-β-induced gene transcription (CAGA-LUC) [1]: significantly less inhibitory effect; inhibition at 0.1 µM (ACVR2A): 14%; inhibition at 0.1 µM (CLK4): 4%; inhibition at 0.1 µM (JAK2): 9%; inhibition at 0.1 µM (EGFR_E746-A750del): -11%; inhibition at 0.1 µM (RET_Y791F): 30%; inhibition at 0.1 µM (EIF2AK3): -14%; inhibition at 0.1 µM (MET_Y1235D): -15%; inhibition at 0.1 µM (GSK3B): -9%
